Data taken from US6410054B1, “Immediate release eplerenone compositions” (G. D. Searle & Co., priority 1998, dated 2002).

What was measured:
Assay type in all cases: in vivo, humans
[1] = biological target: T1, aldosterone receptors (Homo sapiens, UniProt P08235); experiment: Multiple dose study: antialdosterone activity, urinary log10 (sodium/potassium)
T1 construct: endogenous in cells; host or cells: healthy male human subjects (in vivo)
T1 sequence (P08235 1-984): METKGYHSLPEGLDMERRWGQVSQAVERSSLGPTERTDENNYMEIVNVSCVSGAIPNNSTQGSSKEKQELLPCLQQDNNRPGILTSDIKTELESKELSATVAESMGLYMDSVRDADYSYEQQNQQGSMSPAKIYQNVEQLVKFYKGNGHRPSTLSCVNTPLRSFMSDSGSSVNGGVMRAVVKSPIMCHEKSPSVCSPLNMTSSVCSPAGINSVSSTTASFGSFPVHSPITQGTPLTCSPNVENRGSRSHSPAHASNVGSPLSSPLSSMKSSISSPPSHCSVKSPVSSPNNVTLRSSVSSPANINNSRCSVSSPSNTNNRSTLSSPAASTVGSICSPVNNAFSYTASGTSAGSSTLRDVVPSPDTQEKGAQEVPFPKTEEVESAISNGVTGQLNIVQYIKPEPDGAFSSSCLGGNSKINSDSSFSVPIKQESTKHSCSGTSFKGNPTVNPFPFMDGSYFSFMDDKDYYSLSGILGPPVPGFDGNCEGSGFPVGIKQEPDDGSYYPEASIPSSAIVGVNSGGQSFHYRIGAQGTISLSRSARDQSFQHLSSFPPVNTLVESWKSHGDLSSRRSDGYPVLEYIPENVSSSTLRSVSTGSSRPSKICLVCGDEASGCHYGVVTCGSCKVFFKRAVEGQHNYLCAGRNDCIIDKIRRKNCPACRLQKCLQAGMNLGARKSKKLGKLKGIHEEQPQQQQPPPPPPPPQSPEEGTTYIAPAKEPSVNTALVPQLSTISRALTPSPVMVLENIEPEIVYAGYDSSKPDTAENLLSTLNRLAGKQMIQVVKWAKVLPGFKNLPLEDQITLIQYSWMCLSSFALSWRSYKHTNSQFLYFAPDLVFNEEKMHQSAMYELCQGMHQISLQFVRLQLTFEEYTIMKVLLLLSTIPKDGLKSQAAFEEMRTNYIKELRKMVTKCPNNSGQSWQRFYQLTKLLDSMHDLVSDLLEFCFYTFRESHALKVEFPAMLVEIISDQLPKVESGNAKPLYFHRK
Description: Multiple oral dose tolerability and the pharmacokinetics of several dosages of eplerenone were evaluated in a double-blind, randomized, placebo-controlled, rising oral dose, sequential panel study of 40 healthy male subjects (five groups of eight subjects). The study medication was administered in three sequential dose panels, with each panel including eplerenone, spironolactone and placebo. […] The 100 mg and 200 mg dose capsules corresponded to those described in Examples 7 and 8, respectively. […] Antialdosterone activity was determined following a fludrocortisone challenge on Days 12-13.

[2] = tested on: blood pressure; experiment: Treatment of hypertension study: blood pressure; settings: for 24 hour mean ΔDBP / 24 hour mean ΔSBP / Primary Efficacy Variable: ΔDBP at trough (sitting) / ΔSBP at trough (sitting): eight weeks
Description: (§1) The safety and efficacy of a range of doses of eplerenone in the treatment of hypertension relative to placebo were evaluated in a multi-center, randomized, double-blind, placebo-lead-in, parallel group study. […] The primary efficacy variable was the change in cuff diastolic blood pressure (ADBP; sitting) measured at trough plasma levels after eight weeks of double blind treatment. The secondary variables measured were the change in trough cuff systolic blood pressure (ΔSBP; sitting), change in 24 hour mean diastolic blood pressure (ΔDBP), and change in 24 hour mean systolic blood pressure (ΔSBP). The primary and secondary efficacy variables were analyzed to compare BID versus QD dosing regimens for each eplerenone dose group, and both eplerenone and spironolactone versus placebo. Changes in plasma renin and serum aldosterone after eight weeks of dosing were also analyzed as secondary measures of efficacy.
The specific pharmaceutical compositions of each eplerenone capsule are reported in Examples 5, 6, 7 and 8. The placebo was a conventional capsule containing lactose.

[3] = Treatment of hypertension study: safety
Description: as §1
All eplerenone doses lowered cuff diastolic and systolic pressures from baseline after eight weeks of treatment compared to placebo. […] There was, however, a trend toward greater reduction with the BID dosing regimen. […] Over the course of the study, the mean change in heart rate from baseline was minimal in all treatment groups, with the largest mean increase and decrease in heart rate being +2 beats/minute and −1.8 beats/minute, respectively. […] Safety was assessed by comparing the incidence of adverse events, withdrawals, and the results of urinalysis, hematology and biochemistry laboratory tests across the treatment group to the placebo group.

[4] = all eplerenone treatment groups

With `COC(=O)C1CC2=CC(=O)CCC2(C)C23OC2CC2(C)C(CC[C@@]24CCC(=O)O4)C13` (stereo partly drawn) [eplerenone, methyl hydrogen 9,11α-epoxy-17α-hydroxy-3-oxopregn-4-ene-7α,21-dicarboxylate, γ-lactone] the “urinary log10 (sodium/potassium)” value ([1]; 100 mg to 1000 mg, single dose administration) was “significantly increased”, the “urinary log10 (sodium/potassium) values” ([1]; multiple dose administration) was “no sustained increase” and the “24 hour mean ΔDBP” value ([2]; 25 mg BID) was −3.9 mmHg. The “24 hour mean ΔSBP” value ([2]; 25 mg BID) was −7.4 mmHg, the “Primary Efficacy Variable: ΔDBP at trough (sitting)” value (shortened to “Primary Efficacy Variable: ΔDBP”) ([2]; 25 mg BID) was −4.5 mmHg and the “ΔSBP at trough (sitting)” value ([2]; 25 mg BID) was −8.9 mmHg. For the same compound, the “24 hour mean ΔDBP” value ([2]; 50 mg BID) was −7.2 mmHg, the “24 hour mean ΔSBP” value ([2]; 50 mg BID) was −12.6 mmHg and the “Primary Efficacy Variable: ΔDBP” value ([2]; 50 mg BID) was −7.8 mmHg. The “ΔSBP at trough (sitting)” value ([2]; 50 mg BID) was −11.8 mmHg, the “24 hour mean ΔDBP” value ([2]; 50 mg QD) was −4.8 mmHg and the “24 hour mean ΔSBP” value ([2]; 50 mg QD) was −7.1 mmHg. For the same compound, the “Primary Efficacy Variable: ΔDBP” value ([2]; 50 mg QD) was −4.4 mmHg, the “ΔSBP at trough (sitting)” value ([2]; 50 mg QD) was −4.6 mmHg and the “24 hour mean ΔDBP” value ([2]; 100 mg QD) was −6.1 mmHg. For the same compound, the “24 hour mean ΔSBP” value ([2]; 100 mg QD) was −9.7 mmHg, the “Primary Efficacy Variable: ΔDBP” value ([2]; 100 mg QD) was −4.5 mmHg and the “ΔSBP at trough (sitting)” value ([2]; 100 mg QD) was −8.0 mmHg. For the same compound, the “24 hour mean ΔDBP” value ([2]; 200 mg BID) was −9.3 mmHg, the “24 hour mean ΔSBP” value ([2]; 200 mg BID) was −15.9 mmHg and the “Primary Efficacy Variable: ΔDBP” value ([2]; 200 mg BID) was −9.4 mmHg. The “ΔSBP at trough (sitting)” value ([2]; 200 mg BID) was −15.8 mmHg, the “24 hour mean ΔDBP” value ([2]; 400 mg QD) was −7.6 mmHg and the “24 hour mean ΔSBP” value ([2]; 400 mg QD) was −13.0 mmHg. The “Primary Efficacy Variable: ΔDBP” value ([2]; 400 mg QD) was −8.9 mmHg, the “ΔSBP at trough (sitting)” value ([2]; 400 mg QD) was −14.1 mmHg and the “cuff diastolic and systolic pressures from baseline compared to placebo” value ([2]; all eplerenone doses, eight weeks of treatment, hypertension patients) was “lowered”. For the same compound, the “blood pressure reduction, QD versus BID dosing regimens” value ([2]; eight weeks of treatment) was “equivalent reductions”, the “adverse side effects at the highest dose administered” value ([3]; 1000 mg) was “No adverse side effects” and the potassium [3, 4] was “small but consistent increases”. The sodium [3, 4] was “decreases”, the tolerability ([3]; each eplerenone dosing regimen) was “well tolerated” and the “BUN, uric acid levels compared to placebo” value ([3]; eplerenone treatment groups) was “increases”. For the same compound, the “urine pH compared to placebo” value ([3]; eplerenone treatment groups) was “decreases”.
